Series [1] concerns rainbow trout RBCs. In words: Antiviral gene expression in RBCs by RT-qPCR. The settings on record: 50 µM peptide, 6 h post-treatment at 14 °C, normalized to ef1α, relative to untreated RBCs. The format is cell-based, rainbow trout (Oncorhynchus mykiss). Here is the method: Figure 3 Antiviral immunomodulation of the peptides in rainbow trout RBCs. Antiviral gene (ifit5, mx1-3, nkef, and vig1) expression quantified by RT-qPCR in RBCs at 6 h post-treatment (hpt) with 50 µM of each peptide. Gene expression was normalized against ef1α and relativized to control cells (RBCs untreated) (red line). Data represent the mean ± standard deviation (SD), n = 4. Mann–Whitney test was performed (* p < 0.05).
To evaluate the possible antiviral immunomodulatory effects of the peptides, ficoll-purified RBCs (10^6 cells/well) were incubated with 50 µM of 4341, 4342, 4343 Rhd-labeled peptides for 6 h at 14 °C. After that, RBCs were washed, and samples were stored in buffer for RNA extraction and RT-qPCR analysis (Figure 5).
The E.Z.N.A.® Total RNA Kit (Omega Bio-Tek Inc., Norcross, GA, USA) was used for RNA isolation according to the manufacturer’s instructions. Subsequent DNAse treatment was done using TURBO™ DNase (Ambion, Thermo Fisher Scientific, Waltham, MA USA) to eliminate possible residual genomic DNA. RNA was quantified with a NanoDrop Spectrophotometer (Nanodrop Technologies, Wilmington, DE, USA). Then, cDNA synthesis from RNA was performed using M-MLV reverse transcriptase (Invitrogen, Thermo Fisher Scientific) as previously described.
To evaluate the gene expression of RBCs treated with 50 µM of the three Rhd-labeled peptides, RT-qPCR was carried out using the QUANTSTUDIO 3 System (Applied Biosystems, Thermo Fisher Scientific Inc.). Gene expression was analyzed by the 2^–ΔΔCt method. The ef1α gene was used as endogenous control.
In general terms: In qPCR the cycle at which signal appears reflects the starting amount.

The subject of series [2] is rainbow trout RBCs. Kind of series: Confocal microscopy of peptide-RBC binding / presence inside the cell. It counts as cell-based, rainbow trout (Oncorhynchus mykiss). Particulars: 90 min incubation with Rhd-labeled peptides, Hoechst and CellMask Green staining. Here is the method: Figure 2 Volume 3D reconstruction of the visualization of the peptides binding to rainbow trout RBCs. Rhd-labeled peptides are represented in red, nuclei were stained with Hoescht and are represented in blue, and cell membrane was stained using CellMask Green and is represented in beige. The images were taken at 63× magnification. Confocal images were processed using the ZEN 3.2 (Blue edition). Volume rendering was performed with IMARIS v9.3. Upper images represent plan view and lower images represent perspective view.
Confocal microscopy was performed to evaluate peptide-RBCs binding in vitro. After 90 min of incubation with Rhd-labeled peptides, RBCs were washed, and nuclei were stained with Hoechst (1 μg/mL) (Sigma-Aldrich) and membrane was stained with CellMask Green (5 μg/mL) (Thermo Fischer Scientific). Images were taken with a Zeiss LSM900 with Airyscan 2 and analyzed with ZEN 3.2 (Blue edition) software (Zeiss, Oberkochen, Germany). Volume rendering was performed using IMARIS Software v9.3 (Bitplane, Zurich, Switzerland).

Series [3] deals with human RBCs. Particulars: cited from earlier work. The text has this: (§1) Among the identified peptides in the literature, we selected three peptides based on their reported affinity to bind nucleated RBCs or mammalian RBCs. […] This peptide will be named in this article as 4341. Another selected peptide is a small peptide with lectin-like behavior, called odorranalectin (hereafter referred ...

Series [4] relates to rabbit RBCs. Particulars: cited from earlier work.
Text: as §1

The test system of series [5] is rainbow trout RBCs. In words: In vivo binding of peptides to RBCs after i.v. injection, flow cytometry (iMFI). Set-up: species or system rainbow trout (Oncorhynchus mykiss). Particulars: i.v. injection of 100 µM peptide in 50 µL, peripheral blood at 3 hpi, mean ± SD n = 3, ranking of peptides. How it is done:
Figure 4 Peptide binding to rainbow trout RBCs in vivo, by means of flow cytometry. (a) Integrated median fluorescence intensity (iMFI) (% positive cells × MFI) of RBCs from blood of rainbow trout injected intravenously with the three selected peptides, 3 hpi with 100 µM of each peptide, analyzed by flow cytometry. Data represent the mean ± standard deviation (SD), n = 3. Kruskal–Wallis test with Dunn’s multiple comparison test was performed (p < 0.05). C means control RBCs. (b) Representative images of RBCs from blood of rainbow trout injected intravenously with the three selected peptides, 3 hpi with 100 µM of each peptide. The images were taken with the IN Cell Analyzer 6000 Cell Imaging system at 40× magnification. Peptides are labeled with Rhd (red). […]
Juvenile rainbow trout (7–10 g) were anesthetized with tricaine methanesulfonate, (Sigma-Aldrich, Madrid, Spain) (40 mg/L) and injected intravenously (i.v) with 100 µM of 4341, 4342, 4343 Rhd-labeled peptides in 50 µL of RMPI 2% FBS using insulin syringes. […] Then, blood samples were evaluated by means of flow cytometry and fluorescent microscopy as described below (Figure 6).
RBCs treated in vitro with the Rhd-labeled peptides and blood samples from individuals of rainbow trout injected with the three Rhd-labeled peptides were analyzed by flow cytometry using a FACS Canto II flow cytometer (BD Biosciences, Madrid, Spain). […]

The conditions of series [6]: cited from earlier work. The text has this: In addition, our selected peptides were mainly found inside RBCs, instead of at the surface of the RBCs, as observed by confocal microscopy. […] In this contex ...
For series [7], the system named is rainbow trout RBCs. In words: In vitro binding of Rhd-labeled peptides to RBCs, flow cytometry (iMFI). The format is cell-based, rainbow trout (Oncorhynchus mykiss). The settings on record: 100 µM Rhd-labeled peptide, 90 min at 14 °C, 10^5 cells/well, mean ± SD n = 3, ranking of peptides. How it is done: In order to evaluate the binding of the peptides for RBCs, we carried out a dose-response assay using a concentration range from 25 to 100 µM. The binding of the Rhodamine (Rhd)-labeled peptides was evaluated by means of flow cytometry and calculated as the integrated median fluorescence intensity (iMFI), which is computed by multiplying the relative frequency (% positive) of cells with the median fluorescence intensity (MFI) of that population. […] Besides, hemagglutination was not observed at the concentrations of peptides used (Supplementary Figure S1). Cell toxicity was not observed neither in vitro nor in vivo at the maximum concentration of peptides used (Supplementary Figure S2).
Figure 1 Peptide binding to rainbow trout RBCs in vitro, evaluated by means of flow cytometry. (a) Integrated median fluorescence intensity (iMFI) (% positive cells × MFI) of rainbow trout RBCs treated with different peptide concentrations, 90 min after incubation, analyzed by flow cytometry. Data represent the mean ± standard deviation (SD), n = 3. […]
Ficoll-purified RBCs (10^5 cells/well) were treated with 25, 50, and 100 µM of 4341, 4342, 4343 Rhd-labeled peptides, and incubated for 90 min at 14 °C. Then, RBCs were washed with 200 µL of RPMI 2% FBS and analyzed by flow cytometry, fluorescent microscopy, and confocal microscopy as described below (Figure 5). […]

For the substance “Rhd-YASPKCFRYPNGVLACT [compound 4342, odorranalectin, Rhd-labeled small peptide with lectin-like behavior, called odorranalectin]”, in series [1] (n = 4), the mx1-3 gene expression entry was “slight and not statistically significant upregulation”. The ifit5 gene expression result in series [1] (n = 4, Mann–Whitney p < 0.05) is given as “statistically significantly upregulated”. In addition, in series [1] (n = 4, not statistically significant), the nkef gene expression entry is “upregulated”. Further, the “Presence of peptide inside the cell” value in series [2] is listed as “higher”. Further, in series [3], the “Binding to human RBCs” value is listed as “bind”. Further, the “Binding to rabbit RBCs” value in series [4] is “bind”. Further, the “Binding to RBCs in vivo (iMFI = % positive cells × MFI)” value in series [5] was “highest iMFI”. In series [6], the Stability in circulation result was “high stability in circulation”. For the same substance, in series [7], the “Binding to RBCs (iMFI = % positive cells × MFI)” value was “highest binding”.

Values taken from PMC8584011, “Immunomodulatory Lectin-like Peptides for Fish Erythrocytes-Targeting as Potential Antiviral Drug Delivery Platforms” (International Journal of Molecular Sciences, 2021).
